According to patent US6699681B2, “Endothelin converting enzymes and the amyloid β peptide” (Mayo Foundation for Medical Education and Research, priority 2000, dated 2004):

B1: SolECE-1: recombinant soluble form of ECE-1: extracellular domain of human ECE-1a with c-myc and 6×His tags, secreted by CHO cells (protein, UniProt P42892 90-770, looked up)
extracellular domain: QYQTRSPSVCLSEACVSVTSSILSSMDPTVDPCHDFFSYACGGWIKANPVPDGHSRWGTFSNLWEHNQAIIKHLLENSTASVSEAERKAQVYYRACMNETRIEELRAKPLMELIERLGGWNITGPWAKDNFQDTLQVVTAHYRTSPFFSVYVSADSKNSNSNVIQVDQSGLGLPSRDYYLNKTENEKVLTGYLNYMVQLGKLLGGGDEEAIRPQMQQILDFETALANITIPQEKRRDEELIYHKVTAAELQTLAPAINWLPFLNTIFYPVEINESEPIVVYDKEYLEQISTLINTTDRCLLNNYMIWNLVRKTSSFLDQRFQDADEKFMEVMYGTKKTCLPRWKFCVSDTENNLGFALGPMFVKATFAEDSKSIATEIILEIKKAFEESLSTLKWMDEETRKSAKEKADAIYNMIGYPNFIMDPKELDKVFNDYTAVPDLYFENAMRFFNFSWRVTADQLRKAPNRDQWSMTPPMVNAYYSPTKNEIVFPAGILQAPFYTRSSPKALNFGGIGVVVGHELTHAFDDQGREYDKDGNLRPWWKNSSVEAFKRQTECMVEQYSNYSVNGEPVNGRHTLGENIADNGGLKAAYRAYQNWVKKNGAEHSLPTLGLTNNQLFFLGFAQVWCSVRTPESSHEGLITDPHSPSRFRVIGSLSNSKEFSEHFRCPPGSPMNPPHKCEVW
modifications: extracellular domain c-myc and 6xHis tags
notes: recombinant soluble form of ECE-1: extracellular domain of human ECE-1a with c-myc and 6×His tags, secreted by CHO cells

Assays:
H4 neuroglioma cells = experiment: Extracellular Aβ after treatment of H4 cells with metalloprotease inhibitors; type: cell-based, human; settings: H4 neuroglioma cells; thiorphan or captopril at concentrations greater than 1000-times the reported IC50 for the target enzymes
Protocol: Human and guinea pig Aβ40 or Aβ42 was measured in plasma by sandwich ELISA as previously described (Suzuki et al., 1994, Science, 264:1336-1340) using the BAN-50/BA-27 or BAN-50/BC-05 antibody systems, respectively (Takeda; Japan). Hamster Aβ40- or Aβ42-derived from CHO cells was measured using the BNT-77/BA-27 or BNT-77/BC-05 antibody systems, respectively. Aβ concentration in samples was determined by comparison to synthetic Aβ40 or Aβ42 standards (Bachem, Switzerland). Data was obtained from triplicate wells.
In particular, the sandwich ELISA used herein was performed as follows: 96-well microtiter plates were coated overnight at 4° C. with 100 μl of a 5 μg/ml dilution of primary antibody in sodium carbonate coating buffer (SCCB; 0.1 M Na2CO3, pH 9.6). Plates were blocked overnight at 4° C. with 300 μl of BLOCKAGE Solution (PBS+1.0% BLOCKAGE (Snow Brand Milk Products, Japan), 0.05% NaN3, pH 7.4). Samples for analysis and synthetic Aβ standards (Bachem, Switzerland) were diluted in buffer EC (0.02 M NaH2PO4, 0.002 M EDTA, 0.4 M NaCl, 0.2% BSA, 0.05% CHAPS, 0.04% BLOCKAGE, 0.05% NaN3, pH 7.0) and allowed to incubate on the plates overnight at 4° C. Plates were washed twice with PBS (8 mM Na2HPO4, 1.5 mM KH2PO4, 139 mM NaCl, 2.7 mM KCl, pH 7.4) and 100 μl of secondary antibody directly coupled to HRP (EZ-LINK™ Plus Activated Peroxidase kit (contents of kit: peroxidase, 5 M sodium cyanoborohydride solution (NaBH3CN), quenching buffer (3 M ethanolamine, pH 9.0), BupH™ phosphate buffered saline, Buph™ carbonate-bicarbonate buffer), according to manufacturers directions; Pierce Chemical Co., Rockford, Ill.) was allowed to bind either 4 hrs at room temperature or overnight at 4° C. Plates were then washed twice with PBS containing 0.05% Tween 20 followed by two additional washes in PBS. Detection was performed using TMB (3,3′,5,5′-tetramethyl-benzidine) as an HRP substrate according to the manufacturer's specifications (Kirkegaard & Perry Laboratories (KPL), Gaithersburg, Md.) and the reaction stopped by the addition of 100 μl of 1N H3PO4. Plates were read at 450 nm in a SpectraMax Plus spectrophotometer (Molecular Devices; Sunnyvale, Calif.) and analyzed by SOFTmax® PRO software. Aβ40 or Aβ42 were quantitated by comparison with the values obtained for each synthetic Aβ standard from the same plate.
Cells were passaged into 6-well plates one day prior to treatment and grown to confluence. […] After treatment, the culture medium was harvested, spun at 14,000 xg, and the supernatant analyzed for Aβ40 or Aβ42 using sandwich ELISA and for secreted APP using Western blot. […] Bound antibody was detected by incubation with the appropriate HRP-linked secondary antibody (Amersham, Uppsala, Sweden) using ECL™ Western blotting reagents (Amersham) followed by exposure to X-ray film. […]

Aβ in the brain = settings: infusion into the brain of rats; deposition of Aβ42; previous report; cited from earlier work
synthetic Aβ40 or Aβ42 = experiment: Aβ degradation by SolECE-1, sandwich ELISA; type: biochemical; settings: SolECE-1 approximately 0.2 μM; Aβ 0.01 μM; 24 hrs at 37° C., pH 6.5
Protocol: (§1) SolECE-1 (approximately 0.2 μM) was pre-incubated for 15 min at room temperature with the ECE inhibitors PD069185 (synthesized according to published methods (Ahn et al., 1998, Biochem. Biophys. Res. Comm., 243:184-190) by the Mayo Clinic Organic Chemistry Core Facility, Jacksonville, Fla.) or phosphoramidon (150 μM), or an equal volume of vehicle (DMSO or PBS, respectively) prior to incubation with synthetic Aβ40 or Aβ42 (0.01 μM) in 50 mM MES (pH 6.5) containing 0.01% C12E10, 1 mM PMSF, 100 μM leupeptin, and 20 μM pepstatin. As a control, Aβ was incubated with Ni-NTA purified proteins from non-transfected CHO cells, or in reaction buffer alone. Following incubation for 24 hrs at 37° C., the reactions were stopped by the addition of 5 mM EDTA. Aβ concentration was then analyzed using a highly specific sandwich ELISA that captures Aβ via binding of antibody BAN-50 to the N-terminus, and detects only full-length Aβ peptides ending at residue 40 (using antibody BA-27) or 42 (using antibody BC-05). Thus, Aβ that has been further hydrolyzed will not be detected using this assay. To further analyze the degradation of Aβ by SolECE1, the enzyme was incubated with ^3H labeled Aβ40 (0.56 μM, 2×10^4 dpm) as described above and resulting peptides were separated by reverse-phase chromatography.

3H-Aβ40 = experiment: Degradation of 3H labeled Aβ40 by SolECE-1, reverse-phase chromatography; type: biochemical; settings: 3H-Aβ40 0.56 μM
Protocol: as §1

| Molecule | extracellular Aβ accumulation (H4 neuroglioma cells) | amount of Aβ in the brain (Aβ in the brain) | loss of synthetic Aβ40 and Aβ42 detected by sandwich ELISA (synthetic Aβ40 or Aβ42) | effect on 3H-Aβ40 by reverse-phase chromatography (3H-Aβ40) |
| --- | --- | --- | --- | --- |
| C[C@H](CS)C(=O)N1CCC[C@H]1C(=O)O [captopril] | failed to result in increased extracellular Aβ | – | – | – |
| O=C(O)CNC(=O)C(CS)Cc1ccccc1 (centres unmarked) [thiorphan] | failed to result in increased extracellular Aβ | significant increase | – | – |
| B1 | – | – | almost complete loss | loss of the full-length (i.e., unhydrolyzed) Aβ and the formation of at least 4 novel peaks |
